Measurements published in patent US20230099344A1, “COMPOUNDS AND METHODS FOR THE TARGETED DEGRADATION OF IRAK-4” (Arvinas Operations, Inc., priority 2021, published 2023).

Key:
IL6 [1] = assay: IL-1β stimulated IL6 inhibition assay in PBMC; type: cell-based; details: PBMC, human PBMCs, IL-1β stimulation, compound overnight, IL6 by MSD after 24 hrs; for IC50: Homo sapiens, 24 h, read-out: IL1β stim IL6 inhibition IC50; for Emax: read-out: IL1β stim IL6 inhibition Ymax
How it was run: (§1)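 Seed human PBMC, 2.0×10^6 cells/mL → compound overnight → stimulant (IL-1β, LPS or R848) at per-donor EC50 → 24 hrs → media to MSD for IL6/IL8.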

IL8 = assay: IL-1β stimulated IL8 inhibition assay in PBMC; type: cell-based; details: human PBMCs, IL-1β stimulation, compound overnight, IL8 by MSD after 24 hrs; for IC50: read-out: IL1β stim IL8 inhibition IC50; for Emax: read-out: IL1β stim IL8 inhibition Ymax
How it was run: as §1

IL6 [2] = assay: LPS stimulated IL6 inhibition assay in PBMC; type: cell-based; details: Homo sapiens, PBMC, 24 h, human PBMCs, LPS stimulation, compound overnight, IL6 by MSD after 24 hrs; for Dmax: read-out: LPS Stim IL6 inhibition Dmax; for IC50: read-out: LPS stim IL6 inhibition IC50
How it was run: as §1

IL6 [3] = assay: R848 stimulated IL6 inhibition assay in PBMC; type: cell-based; details: PBMC, human PBMCs, R848 stimulation, compound overnight, IL6 by MSD after 24 hrs; for Dmax: Homo sapiens, 24 h, read-out: R848 stim IL6 inhibition Dmax; for IC50: read-out: R848 stim IL6 inhibition IC50
How it was run: as §1

IRAK-4 [4] = target: T1, IRAK-4 (Homo sapiens, UniProt Q9NWZ3); assay: IRAK-4 ELISA, OCI-Ly10 degradation; type: cell-based; parameters: endogenous in cells; details: treated overnight; for Dmax: OCI-Ly10, OCI-Ly10 cells; for DC50: OCI-Ly10 cells
T1 sequence (Q9NWZ3 1-460): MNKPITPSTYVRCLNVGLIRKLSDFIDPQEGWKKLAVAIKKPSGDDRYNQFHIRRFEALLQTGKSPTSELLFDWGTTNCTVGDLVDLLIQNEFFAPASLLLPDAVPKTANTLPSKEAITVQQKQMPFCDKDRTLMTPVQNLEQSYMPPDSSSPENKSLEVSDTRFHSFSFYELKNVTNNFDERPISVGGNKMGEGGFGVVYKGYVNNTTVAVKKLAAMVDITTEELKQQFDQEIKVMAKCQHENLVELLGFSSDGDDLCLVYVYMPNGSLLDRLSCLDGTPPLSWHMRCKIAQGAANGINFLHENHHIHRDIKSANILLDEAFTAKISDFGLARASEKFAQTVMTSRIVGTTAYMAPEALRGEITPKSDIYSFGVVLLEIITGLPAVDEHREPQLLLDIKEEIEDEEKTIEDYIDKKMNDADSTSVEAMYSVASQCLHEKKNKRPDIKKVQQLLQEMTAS
How it was run: (§2)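 ELISA quantification of cellular IRAK-4 after compound treatment overnight; PBMC were plated at 2×10^6/ml, OCI-Ly10 at 1×10^6/ml.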

IRAK-4 [5] = target: T1, IRAK-4; assay: IRAK-4 ELISA, PBMC degradation; type: cell-based; parameters: endogenous in cells; host or cells: PBMC; details: treated overnight
How it was run: as §2

IRAK-4 [6] = target: T2, IRAK-4 (Mus musculus, UniProt Q8R4K2); assay: PD study in wild type mice (spleen and lung); type: in vivo; details: oral 10, 30 or 90 mg/kg, terminated 24 h later, ELISA, vs vehicle, FIGS. 3A and 3B
T2 construct: plasma, spleen and lung tissue were collected for analysis of compound concentration and IRAK-4 quantification; from tissue; host or cells: spleen and lung of wild type mice
T2 sequence (Q8R4K2 1-459): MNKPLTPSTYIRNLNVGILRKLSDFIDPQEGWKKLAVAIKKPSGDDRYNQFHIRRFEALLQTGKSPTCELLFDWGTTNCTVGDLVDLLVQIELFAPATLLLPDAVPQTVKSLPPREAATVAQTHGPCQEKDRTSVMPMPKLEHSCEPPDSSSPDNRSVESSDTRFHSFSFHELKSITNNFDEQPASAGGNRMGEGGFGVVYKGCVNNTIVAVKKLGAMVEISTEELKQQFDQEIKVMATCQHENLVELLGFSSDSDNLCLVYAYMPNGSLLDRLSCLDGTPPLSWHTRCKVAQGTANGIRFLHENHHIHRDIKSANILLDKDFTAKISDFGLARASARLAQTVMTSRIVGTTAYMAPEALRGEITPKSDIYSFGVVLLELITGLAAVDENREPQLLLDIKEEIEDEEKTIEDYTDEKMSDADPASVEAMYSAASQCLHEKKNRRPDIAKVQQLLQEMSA
Description: FIGS. 3A and 3B. PD study in wild type mice.
A PD Study in Wild Type Mice was Performed
In FIGS. 3A and 3B, mice were randomly assigned to each treatment group. Animals were dosed orally with 10, 30, or 90 mg/kg compound formulated in 10% DMSO, 90% (2% Tween 80 in PEG 400) and terminated 24 h later. At termination, plasma, spleen and lung tissue were collected for analysis of compound concentration and IRAK-4 quantification. Spleen and lung were snap frozen. IRAK-4 content in any tissue is assessed with the same protocol described for tumor lysates.

| SMILES | IC50 (IL6 [1]) [nM] | Emax (IL6 [1]) [%] | IC50 (IL8) [nM] | Emax (IL8) [%] | Dmax (IL6 [2]) [%] | IC50 (IL6 [2]) [nM] | Dmax (IL6 [3]) [%] | IC50 (IL6 [3]) [nM] | Dmax (IRAK-4 [4]) [%] | DC50 (IRAK-4 [4]) [nM] | DC50 (IRAK-4 [5]) [nM] | Dmax (IRAK-4 [5]) [%] | PBMC DC90 (IRAK-4 [5]) | IRAK-4 concentration in spleen and lung samples (IRAK-4 [6]) |
| --- | --- | --- | --- | --- | --- | --- | --- | --- | --- | --- | --- | --- | --- | --- |
| O=C1CCC(N2Cc3cc(N4CCC(CN5CCC(N6Cc7cc(NC(=O)c8cnn9cccnc89)c(N8CCC(N9CCC9)CC8)cc7C6=O)CC5)CC4)ccc3C2=O)C(=O)N1 (centres unmarked) [Example 97] | < 10 | ≥ 90 | 10 to 50 | ≥ 90 | ≥ 90 | < 10 | ≥ 90 | 10 to 50 | ≥ 90 | < 10 | < 1 | 80 to 90 | A (A represents a DC90 value <10.0 nM) |  |
| O=C1CCC(N2C(=O)c3ccc(N4CCC(CN5CCC(n6cc7cc(NC(=O)c8cnn9cccnc89)c(OCC8CC8)cc7n6)CC5)CC4)cc3C2=O)C(=O)N1 (centres unmarked) [Example 165] | < 10 | 80 to 90 | 10 to 50 | 70 to 80 | 70 to 80 | 10 to 50 | ≥ 90 | 10 to 50 | ≥ 90 | 10 to 50 | 1 to 5 | ≥ 90 | A (A represents a DC90 value <10.0 nM) |  |
| O=C1CCC(N2C(=O)c3ccc(N4CC(F)(CN5CCC(n6cc7cc(NC(=O)c8cnn9cccnc89)c(OCC8CC8)cc7n6)CC5)C4)cc3C2=O)C(=O)N1 (centres unmarked) [Example 161, N-(6-(cyclopropylmethoxy)-2-(1-((1-(2-(2,6-dioxopiperidin-3-yl)-1,3-dioxoisoindolin-5-yl)-3-fluoroazetidin-3-yl)methyl)piperidin-4-yl)-2H-indazol-5-yl)pyrazolo[1,5-a]pyrimidine-3-carboxamide] | 10 to 50 | 80 to 90 | ≥ 100 |  | 70 to 80 | 10 to 50 | ≥ 90 | 10 to 50 | ≥ 90 | 10 to 50 | 1 to 5 | ≥ 90 | B (B represents a DC90 value ≥10.0 nM and <25.0 nM) |  |
| CC(C)Oc1cc2c(cc1NC(=O)c1cnn3cccnc13)CN(C1CCN(CC3CCN(c4ccc5c(c4)C(=O)N(C4CCC(=O)NC4=O)C5=O)CC3)CC1)C2=O (centres unmarked) [Example 1, N-(2-(1-((1-(2-(2,6-dioxopiperidin-3-yl)-1,3-dioxoisoindolin-5-yl)piperidin-4-yl)methyl)piperidin-4-yl)-6-isopropoxy-1-oxoisoindolin-5-yl)pyrazolo[1,5-a]pyrimidine-3-carboxamide] | < 10 | ≥ 90 | 10 to 50 | 70 to 80 | 80 to 90 | < 10 | ≥ 90 | < 10 | ≥ 90 | < 10 | < 1 | ≥ 90 | 1 nM |  |
| COc1cc(N2CCC(CN3CCC(N4Cc5cc(NC(=O)c6cnn7cccnc67)c(OC(C)C)cc5C4=O)CC3)CC2)cc2c1C(=O)N(C1CCC(=O)NC1=O)C2 (centres unmarked) [Example 23] | < 10 | ≥ 90 | 10 to 50 | 80 to 90 | 70 to 80 | 10 to 50 | ≥ 90 | 10 to 50 | 80 to 90 | < 10 | < 1 | ≥ 90 | A (A represents a DC90 value <10.0 nM) |  |
| O=C1CCC(N2C(=O)c3ccc(N4CCN(CCN5CCC(n6cc7cc(NC(=O)c8cnn9cccnc89)c(OCC8CC8)cc7n6)CC5)CC4)cc3C2=O)C(=O)N1 (centres unmarked) [Example 167] | 10 to 50 | ≥ 90 | ≥ 100 | 80 to 90 |  |  |  |  | ≥ 90 | < 10 | < 1 | ≥ 90 | A (A represents a DC90 value <10.0 nM) | much lower |
| CC(C)Oc1cc2c(cc1NC(=O)c1cnn3cccnc13)CN([C@H]1CC[C@H](N(C)C3CN(c4ccc5c(c4)C(=O)N(C4CCC(=O)NC4=O)C5=O)C3)CC1)C2=O (some centres unmarked) [Example 313, N-(2-((1r,4r)-4-((1-(2-(2,6-dioxopiperidin-3-yl)-1,3-dioxoisoindolin-5-yl)azetidin-3-yl)(methyl)amino)cyclohexyl)-6-isopropoxy-1-oxoisoindolin-5-yl)pyrazolo[1,5-a]pyrimidine-3-carboxamide] | < 10 | ≥ 90 | < 10 | < 70 | 80 to 90 | 10 to 50 | ≥ 90 | < 10 | ≥ 90 | < 10 | < 1 | ≥ 90 | A (A represents a DC90 value <10.0 nM) |  |
| O=C1CCC(N2C(=O)c3ccc(N4CCC(CN5CCC(N6Cc7cc(NC(=O)c8cnn9cccnc89)c(OCC8CC8)cc7C6=O)CC5)CC4)cc3C2=O)C(=O)N1 (centres unmarked) [Example 30] | 10 to 50 | ≥ 90 | ≥ 100 |  |  |  |  |  | ≥ 90 | < 10 | < 1 | 80 to 90 | A (A represents a DC90 value <10.0 nM) |  |
| COc1cc2nn(C3CCN(CC4(F)CN(c5ccc6c(c5)CN(C5CCC(=O)NC5=O)C6=O)C4)CC3)cc2cc1NC(=O)c1cnn2cccnc12 (centres unmarked) [Example 274] | 10 to 50 | ≥ 90 | 50 to 100 | 70 to 80 |  |  |  |  | < 70 | < 10 | < 1 | 80 to 90 | A (A represents a DC90 value <10.0 nM) |  |
| O=C1CCC(N2C(=O)c3ccc(N4CC(N5CCC(N6Cc7cc(NC(=O)c8cnn9cccnc89)c(N8CCC(N9CCC9)CC8)cc7C6=O)CC5)C4)cc3C2=O)C(=O)N1 (centres unmarked) [Example 99] | 10 to 50 | ≥ 90 | 50 to 100 | 80 to 90 |  |  |  |  | ≥ 90 | < 10 | 5 to 10 | 80 to 90 | D (D represents a DC90 value ≥50 nM) |  |
| COc1cc2nn(C3CCN(CC4CCN(c5ccc6c(c5)CN(C5CCC(=O)NC5=O)C6=O)CC4)CC3)cc2cc1NC(=O)c1cnn2cccnc12 (centres unmarked) [Example 141] | < 10 | ≥ 90 | 10 to 50 | 80 to 90 |  |  |  |  | 80 to 90 | < 10 | 1 to 5 | 80 to 90 | B (B represents a DC90 value ≥10.0 nM and <25.0 nM) |  |
